The record followed here is patent US11266170B2, “Sweetener and flavor compositions, methods of making and methods of use thereof” (EPC Natural Products Co., Ltd., priority 2018, dated 2022).

One series deals with 3 persons. The experiment in a line: Sensory analysis of odor/smell, color and taste of reacted samples (Examples 55-62). The class given is in vivo. As to the method:
The reaction partners were dissolved in water and then warmed glycerin (60° C.) was added. […]
The taste test was performed as in Example 38.
All samples were assessed at 22° C. after the Maillard reaction was stopped by placing the sealed vials in an ice bath. After 20 minutes in the ice bath the sealed vials were put in a water bath set to 22° C.
The odor/smell was assessed independently by 3 persons; the final description was agreed after discussion. […] The taste was assessed independently by 3 persons either in the original samples or after appropriate dilution to achieve relevant concentrations of sugars and steviol-glycosides (i.e. 5-9% SE); the final description was agreed after discussion.

Series [1] is described as follows: Kinetics of reaction of Phe with Reb-A, Gluc, Xyl, Suc in dependence of pH-conditions, HPLC/MS (Example 55). The class given is physicochemical. As to the method:
Quantitative evaluation was performed using external standardization.
Kinetics of Reaction in dependence of pH-conditions

A further series deals with panel of four people. The experiment in a line: Sensory test of Maillard reaction series in glycerol, buffer or dry conditions (Examples 50, 52). The class given is in vivo. On the set-up: key to Intensity of Smell: “+” for slight; “++” for moderate; “+++” for very strong. Here is the method:
The reaction partner (amino acid, carbohydrate source) were dissolved/suspended in the reaction solvent and transferred into a glass beaker filled with sand pre-heated for at least 30 minutes at the reaction temperature in a drying oven. After the planned reaction time, the vials were transferred into ice water. After cooling to room temperature, sensory analysis and analytical characterization was performed.
All tests were performed with negative controls (only reaction solvent, reaction solvent and amino acid, reaction solvent and carbohydrate).
Another series of experiments was performed in […] filled with 10 ml of reaction solvent. The reaction partner (amino acid, carbohydrate source) were dissolved/suspended in the reaction solvent and reflux heated for the time given on heating plates. After the planned reaction time, the flasks were transferred into ice water. After cooling to room temperature, sensory analysis and analytical characterization was performed.
Another series of experiments was performed in 20 ml sealed Pyrex vials. The reaction partner (amino acid, carbohydrate source) were finely grinded and mixed, then transferred in the Pyrex vial. A small volume of water was added and the reaction initiated in a drying oven. After the planned reaction time, the vials were transferred into ice water. After cooling to room temperature, sensory analysis and analytical characterization was performed.
For evaluation of the taste profile, the samples were tested by a panel of four people. 1 trained taster tasted independently the samples first. The taster was asked to describe the taste profile and score 0-5 according to the increasing sugar likeness, bitterness, aftertaste and lingering taste profiles. The first taster was allowed to re-taste, and then make notes for the sensory attributes perceived. Afterwards, another 3 tasters tasted and the attributes were noted and discussed openly to find a suitable description. In case that more than 1 taster disagreed with the results, the tasting was repeated. In some sensory test results (above), the taste rating was expressed by “+”, which means the intensity of the factors is shown by three levels. “+” for slight, “++” for moderate and “+++” for very strong.

Where [2] appears, read: Example 57, after reaction, 10 ml KH2PO4, pH 7.8, 2.5 h, 120 °C.
Setting [3] is: reaction of Phe and Gluc, pH = 5.5.
[4] abbreviates: reaction of Phe and Gluc, pH = 7.0.
Setting [5] is: reaction of Phe and Gluc, pH = 8.5.
[6] abbreviates: reaction of Phe and Suc, pH = 5.5.
The mark [7] stands for this setting: reaction of Phe and Suc, pH = 7.0.
[8] abbreviates: reaction of Phe and Suc, pH = 8.5.
The mark [9] stands for this setting: Table 52.2, 1 ml water + 9 ml Glycerin, 0.67 h, 100° C. (Table 50.2).
The mark [10] stands for this setting: Table 52.5, 1 ml water + 9 ml Glycerin, 2.0 h, 120° C. (Table 50.5).
Setting [11] is: Table 52.3, 1 ml water + 9 ml Glycerin, 0.67 h, 100° C. (Table 50.3).
Setting [12] is: Table 52.6, Glycerin, 10 ml, 100° C., 40 min (Table 50.6).
Setting [13] is: Table 52.7, Glycerin, 10 ml, 1 h, 120° C. (Table 50.7).
Where [14] appears, read: Example 57, before reaction, 10 ml KH2PO4, pH 7.8.
Where [15] appears, read: negative controls (no carbohydrate source), 10 ml glycerin/water 9:1, 100 °C, 40 minutes.
Where [16] appears, read: Table 52.1, 1 ml water + 9 ml Glycerin, 1 h, 100° C. (Table 50.1).
Setting [17] is: reaction of Phe and Reb-A, pH = 5.5, Reb-B from degraded Reb-A, MRIs from degraded Phe.
Setting [18] is: reaction of Phe and Reb-A, pH = 7.0, Reb-B from degraded Reb-A, MRIs from degraded Phe.
[19] abbreviates: reaction of Phe and Reb-A, pH = 8.5, Reb-B from degraded Reb-A, MRIs from degraded Phe.

Regarding `NC(Cc1ccccc1)C(=O)O` (single isomer, unassigned) [Phe], in the series on 3 persons (setting [2]), the Smell result is “Caramel, burnt”. The Taste result with 3 persons (setting [2]) is “sweet”. For the same compound, the “% degradation” value in series [1] (setting [3]) came to 2.26%; in series [1] (setting [4]), 2.18%; in series [1] (setting [5]) it was 4.24%; in series [1] (reaction of Phe and Reb-A, pH = 5.5), 1.97%; in series [1] (reaction of Phe and Reb-A, pH = 7.0), 9.07%; in series [1] (reaction of Phe and Reb-A, pH = 8.5), 12.8%. The “% degradation” value is listed as 5.50% in series [1] (setting [6]); 5.19% in series [1] (setting [7]); 5.36% in series [1] (setting [8]); 4.24% in series [1] (reaction of Phe and Xyl, pH = 5.5); 4.80% in series [1] (reaction of Phe and Xyl, pH = 7.0); 9.89% in series [1] (reaction of Phe and Xyl, pH = 8.5).
Regarding `C[C@H](N)C(=O)O` [0.1 mMol Ala], in the series with panel of four people (setting [9]), the Smell result is “Agar” and the Taste entry is on record as “sweet”.
For `O=C[C@H](O)[C@H]1OC(=O)[C@@H](O)[C@H]1O` [0.1 mMol GlucLac], in the series on panel of four people (setting [10]), the “Intensity of Smell” value is on record as “+++”, the Smell result is listed as “Burnt sugar” and the Taste entry is listed as “Bitter”.
For the compound `NCCCC[C@H](N)C(=O)O` [0.1 mMol Lys], in the series with panel of four people (setting [11]), the Smell result is recorded as “Popcorn” and the Taste entry is given as “Sweet”.
For the compound `N[C@@H](Cc1ccccc1)C(=O)O` [0.1 mMol Phe], the Taste result with panel of four people (setting [9]) was “sweet”. For the same compound, in the series on panel of four people (setting [10]), the “Intensity of Smell” value is “+”; the Smell entry is on record as “Caramel, burnt”; the Taste entry is reported as “sweet”.
For `C=C1C[C@@]23CC[C@H]4[C@@](C)(CCC[C@@]4(C)C(=O)O[C@@H]4O[C@H](CO)[C@@H](O)[C@H](O)[C@H]4O)[C@@H]2CC[C@]1(O[C@@H]1O[C@H](CO)[C@@H](O)[C@H](O[C@@H]2O[C@H](CO)[C@@H](O)[C@H](O)[C@H]2O)[C@H]1O[C@@H]1O[C@H](CO)[C@@H](O)[C@H](O)[C@H]1O)C3` [0.05 mMol Reb-A], in the series with panel of four people (setting [9]), the Smell entry is reported as “neutral/unpleasant” and the Taste result is “sweet”.
Turning to `N[C@@H](Cc1ccccc1)C(=O)O` [3.3 mMol Phe], the Smell result in the series with panel of four people (Table 52.6, Glycerin, 10 ml, 100° C., 5 min (Table 50.6)) is on record as “Slightly bloomy”; in the series on panel of four people (Table 52.6, Glycerin, 10 ml, 100° C., 10 min (Table 50.6)), “flowery/bloomy”; in the series on panel of four people (Table 52.6, Glycerin, 10 ml, 100° C., 20 min (Table 50.6)) it was “flowery/bloomy”; with panel of four people (setting [12]), “flowery/bloomy”; with panel of four people (setting [13]) it was “flowery/bloomy”.
As for `OC[C@H]1OC(O)[C@H](O)[C@@H](O)[C@@H]1O` (some centres unmarked) [10 mMol Glu], the Smell entry with panel of four people (setting [12]) and in the series with panel of four people (setting [13]) was “Slightly Caramel” throughout.
For `N[C@@H](Cc1ccccc1)C(=O)O` [16.5 mg Phe], the Smell result with 3 persons (setting [14]) is recorded as “neutral”; in the series with 3 persons (Example 58, after reaction, 10 ml KH2PO4, pH 7.8, 2.5 h, 120 °C) it was “Caramel, burnt”; with 3 persons (Example 58, before reaction, 10 ml KH2PO4, pH 7.8) it was “Neutral”; in the series on 3 persons (setting [15]) it was “Bloomy, caramel”. Also, the Taste entry is on record as “No taste” with 3 persons (setting [14]); “Sweet” in the series on 3 persons (Example 58, after reaction, after dilution 1:20); “No taste” with 3 persons (Example 58, before reaction, after dilution 1:20); “Slightly sweet” with 3 persons (setting [15]).
`N[C@@H](Cc1ccc(O)cc1)C(=O)O` [18.1 mg Tyr]: in the series with 3 persons (setting [15]), the Smell entry is reported as “neutral” and the Taste entry is “Slightly sweet”.
As to `N[C@@H](Cc1c[nH]c2ccccc12)C(=O)O` [20.42 mg Try], in the series with 3 persons (setting [15]), the Smell result is listed as “Unpleasant (fecal)” and the Taste entry is “Slightly sweet”.
Consider `N[C@@H](CCC(=O)O)C(=O)O` [167 mMol Glu], for which, in the series with panel of four people (setting [16]), the Smell entry was “caramel” and the Taste entry is “Sweet”.
As for `OC[C@H]1OC(O)[C@H](O)[C@@H](O)[C@@H]1O` (some centres unmarked) [Glu], the Smell result in the series with 3 persons (setting [2]) is “Burnt sugar”. Besides, the Taste result in the series on 3 persons (setting [2]) was “Sweet/bitter”. Also, the “% degradation” value amounted to 3.65% in series [1] (setting [3]), 4.6% in series [1] (setting [4]) and 7.62% in series [1] (setting [5]).
For the compound `O=C[C@H](O)[C@@H](O)[C@H](O)[C@H](O)C(=O)O` [Glucuronic Acid], in the series with 3 persons (setting [2]), the Smell entry is on record as “burnt bread” and the Taste entry was “Bitter”.
Taken in the same sequence, the figures for `O=C1O[C@@H]2[C@@H](O)[C@H](O)O[C@@H]2C1O` (some centres unmarked) [Glucuronolactone] were “Burnt sugar” and “Bitter”.
With `O=C(O)[C@H](Cc1ccccc1)NCC(=O)[C@@H](O)[C@H](O)[C@H](O)CO` [MRI (Phe-Glu)], the “% formation” value was less than 0.10% in series [1] (reaction of Phe and Suc, pH = 5.5, from degraded Phe); 0.54% in series [1] (reaction of Phe and Suc, pH = 7.0, from degraded Phe); 0.84% in series [1] (reaction of Phe and Suc, pH = 8.5, from degraded Phe).
As for `C=C1CC23CC[C@H]4[C@@](C)(CCC[C@@]4(C)C(=O)OC4O[C@H](C(=O)N[C@H](Cc5ccccc5)C(=O)O)[C@@H](O)[C@H](O)[C@H]4O)[C@@H]2CC(O[C@@H]2O[C@H](CO)[C@@H](O)C(O[C@@H]4O[C@H](CO)[C@@H](O)[C@H](O)[C@H]4O)[C@H]2O[C@@H]2O[C@H](CO)[C@@H](O)[C@H](O)[C@H]2O)C1C3` (stereo partly drawn) [MRI (Phe-Reb-A)], the “% formation” value worked out at 10.4% in series [1] (setting [17]), 11.3% in series [1] (setting [18]) and 14.7% in series [1] (setting [19]).
Take `N[C@@H](Cc1ccccc1)C(=O)O` [Phe 60 mMol]: in the series with panel of four people (setting [16]), the Smell entry is reported as “flowery/bloomy-caramel” and the Taste result was “Sweet”.
In the case of `OC[C@H]1O[C@@](CO)(O[C@H]2O[C@H](CO)[C@@H](O)[C@H](O)[C@H]2O)[C@@H](O)[C@@H]1O` [Suc], the “% degradation” value in series [1] (setting [6]) stood at 3.67%; in series [1] (setting [7]), 5.69%; in series [1] (setting [8]), 9.81%.
On to rebaudioside B [RB], for which the “% formation” value is listed as 23.1% in series [1] (setting [17]), 22.7% in series [1] (setting [18]) and 19.1% in series [1] (setting [19]).
